Measured values reported in US9988399B2, “Bicyclic compounds as ACC inhibitors and uses thereof” (Gilead Apollo, LLC, priority 2013, dated 2018).

What was measured:
ACC2 [1] = target: ACC2 (Homo sapiens, UniProt O00763); experiment: in vitro ACC2 inhibition assay (ADP-Glo); type: biochemical; settings: 5 nM ACC2, 20 μM ATP, 20 μM acetyl-CoA
Protocol: An exemplary procedure for the in vitro ACC inhibition assay, which can be used to determine the inhibitory action of compounds of the invention toward either ACCT or ACC2, follows. The ADP-Glo™ Kinase Assay kit from Promega is used. The ADP-Glo™ Kinase Assay is a luminescent ADP detection assay to measure enzymatic activity by quantifying the amount of ADP produced during an enzyme reaction. The assay is performed in two steps; first, after the enzyme reaction, an equal volume of ADP-Glo™ Reagent is added to terminate the reaction and deplete the remaining ATP. Second, the Kinase Detection Reagent is added to simultaneously convert ADP to ATP and allow the newly synthesized ATP to be measured using a luciferase/luciferin reaction. Luminescence can be correlated to ADP concentrations by using an ATP-to-ADP conversion curve. The detailed procedure is as follows. 50 μL of the compound being tested (600 uM in DMSO) is added to a 384-well dilution plate. The compound is diluted 1:3 in succession in DMSO for each row for 11 wells. […] is added to 384-well white Optiplate assay plate. 0.5 μL diluted compound solution in each column from step 2 is added to the assay plate, each row containing 2 replicates. For the last 2 rows, add 0.5 μL negative control (DMSO) in one row and 0.5 μL positive control (compound I-97) in the other. The plates are incubated at room temperature for 15 minutes. 5 μL substrate working solution is added to each well to initiate reaction. Final ACC2 reaction concentrations consist of: 5 nM ACC2, 20 μM ATP, 20 μM acetyl-CoA, 12 mM NaHCO3, 0.01% Brij35, 2 mM DTT, 5% DMSO, test compound concentrations: 30 μM, 10 μM, 3.33 μM, 1.11 μM, 0.37 μM, 0.123 μM, 0.0411 μM, 0.0137 μM, 0.00457 μM, 0.00152 μM, and 0.00051 μM. Plates are incubated at room temperature for 60 minutes. 10 μL ADP glo reagent is added. Plates are incubated at room temperature for 40 minutes. 20 μL kinase detection reagent is added. Plates are incubated at room temperature for 40 minutes, then read on a Perkin Elmer EnVision 2104 plate reader for luminescence as Relative Light Units (RLU).
Data for each concentration, as well as the positive and negative controls are averaged, and the standard deviation calculated. Percent inhibition is calculated by the formula: 100×(average negative control−compound)/(average negative control−average positive control). The IC50 for each compound is calculated by fitting the data with a non-linear regression equation: Y=Bottom+(Top-Bottom)/(1+10^((Log IC50−X)*HillSlope)), where X is the log of compound concentration and Y is percent inhibition.

ACC1 = ACC1 isolated from rat, mouse, monkey and human; cited from earlier work
ACC2 [2] = settings: ACC2 isolated from rat, mouse, monkey and human; cited from earlier work

Chain of ACC2 (Homo sapiens, UniProt O00763) (O00763 whole entry, species assumed): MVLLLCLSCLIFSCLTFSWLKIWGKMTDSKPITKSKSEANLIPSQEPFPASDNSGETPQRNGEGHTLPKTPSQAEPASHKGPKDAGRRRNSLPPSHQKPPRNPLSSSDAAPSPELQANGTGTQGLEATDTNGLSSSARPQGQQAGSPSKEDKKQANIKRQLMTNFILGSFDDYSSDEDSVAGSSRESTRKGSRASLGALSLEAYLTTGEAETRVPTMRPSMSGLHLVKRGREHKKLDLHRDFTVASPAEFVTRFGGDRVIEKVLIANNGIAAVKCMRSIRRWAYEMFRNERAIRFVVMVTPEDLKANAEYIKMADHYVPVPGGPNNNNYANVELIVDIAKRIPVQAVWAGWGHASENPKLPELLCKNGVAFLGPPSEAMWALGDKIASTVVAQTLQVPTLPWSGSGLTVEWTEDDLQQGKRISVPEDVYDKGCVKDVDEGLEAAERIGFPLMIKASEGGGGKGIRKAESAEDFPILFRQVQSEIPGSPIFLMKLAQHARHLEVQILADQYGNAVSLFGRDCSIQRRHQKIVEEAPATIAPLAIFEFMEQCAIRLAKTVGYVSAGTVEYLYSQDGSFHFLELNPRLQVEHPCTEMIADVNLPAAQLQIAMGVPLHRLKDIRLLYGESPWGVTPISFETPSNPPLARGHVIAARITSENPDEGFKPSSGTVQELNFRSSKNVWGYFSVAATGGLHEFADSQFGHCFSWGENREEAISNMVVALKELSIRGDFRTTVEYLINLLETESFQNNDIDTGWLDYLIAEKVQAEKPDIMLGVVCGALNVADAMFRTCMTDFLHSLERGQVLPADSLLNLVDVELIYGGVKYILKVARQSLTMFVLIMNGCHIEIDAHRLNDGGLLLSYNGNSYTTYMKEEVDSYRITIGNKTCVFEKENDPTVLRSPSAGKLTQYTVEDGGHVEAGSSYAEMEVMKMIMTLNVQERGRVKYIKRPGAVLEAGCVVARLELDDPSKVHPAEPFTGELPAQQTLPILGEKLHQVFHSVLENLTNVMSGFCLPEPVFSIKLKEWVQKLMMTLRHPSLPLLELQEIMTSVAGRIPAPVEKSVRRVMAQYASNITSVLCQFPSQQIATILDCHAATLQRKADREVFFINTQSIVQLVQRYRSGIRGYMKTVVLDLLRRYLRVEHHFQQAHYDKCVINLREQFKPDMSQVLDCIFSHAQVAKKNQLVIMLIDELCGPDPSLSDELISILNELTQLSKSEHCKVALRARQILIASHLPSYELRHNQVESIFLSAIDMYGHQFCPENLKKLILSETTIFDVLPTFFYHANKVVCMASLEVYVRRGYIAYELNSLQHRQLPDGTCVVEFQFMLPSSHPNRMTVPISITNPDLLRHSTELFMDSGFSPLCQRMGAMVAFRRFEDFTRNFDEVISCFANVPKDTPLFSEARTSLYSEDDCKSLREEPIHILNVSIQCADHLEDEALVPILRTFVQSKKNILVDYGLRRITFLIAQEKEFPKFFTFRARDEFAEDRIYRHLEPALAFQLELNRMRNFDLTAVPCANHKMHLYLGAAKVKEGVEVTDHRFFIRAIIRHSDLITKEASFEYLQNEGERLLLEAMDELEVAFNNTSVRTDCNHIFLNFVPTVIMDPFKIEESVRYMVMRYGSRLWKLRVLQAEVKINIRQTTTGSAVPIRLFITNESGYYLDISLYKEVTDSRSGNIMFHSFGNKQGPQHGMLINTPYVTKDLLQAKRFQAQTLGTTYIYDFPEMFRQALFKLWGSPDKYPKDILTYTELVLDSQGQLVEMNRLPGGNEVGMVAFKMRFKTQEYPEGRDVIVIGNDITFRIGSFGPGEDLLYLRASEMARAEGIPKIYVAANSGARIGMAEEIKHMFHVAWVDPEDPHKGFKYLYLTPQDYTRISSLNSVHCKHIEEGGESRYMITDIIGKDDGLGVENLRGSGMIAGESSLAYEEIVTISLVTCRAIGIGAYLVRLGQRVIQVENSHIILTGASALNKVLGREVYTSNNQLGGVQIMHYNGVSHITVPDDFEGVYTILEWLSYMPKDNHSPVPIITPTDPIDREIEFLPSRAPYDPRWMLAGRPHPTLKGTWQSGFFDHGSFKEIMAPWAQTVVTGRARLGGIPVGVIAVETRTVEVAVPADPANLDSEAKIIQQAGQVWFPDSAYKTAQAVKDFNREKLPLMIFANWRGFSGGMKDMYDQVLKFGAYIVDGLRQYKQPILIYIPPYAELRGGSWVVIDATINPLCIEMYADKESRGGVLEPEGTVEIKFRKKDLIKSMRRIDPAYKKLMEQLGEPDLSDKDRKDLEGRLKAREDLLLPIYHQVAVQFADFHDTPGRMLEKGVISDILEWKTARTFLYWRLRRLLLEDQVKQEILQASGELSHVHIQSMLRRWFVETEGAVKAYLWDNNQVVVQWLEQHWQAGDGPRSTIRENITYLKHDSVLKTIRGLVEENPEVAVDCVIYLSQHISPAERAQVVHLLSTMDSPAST

| SMILES | IC50 (ACC2 [1]) [nM] | IC50 (ACC1) [nM] | IC50 (ACC2 [2]) [nM] |
| --- | --- | --- | --- |
| O=C(c1c2ccccc2cc2ccccc12)N1CCC(N2CCC[C@@H](C(=O)N3CCOCC3)C2)CC1 [CP-640186] |  | ~60 | ~60 |
| COc1ccccc1CCn1c(=O)n(CC(=O)O)c(=O)c2c1nc(-c1ncco1)n2C [Compound I-36, 2-(3-(2-methoxyphenethyl)-7-methyl-8-(oxazol-2-yl)-2,6-dioxo-2,3,6,7-tetrahydro-1H-purin-1-yl)acetic acid] | 5000 to 20000 |  |  |
| COc1ccccc1CCn1c(=O)n(CC(=O)O)c(=O)c2nc(-c3ncco3)sc21 [Compound I-35, 2-(4-(2-methoxyphenethyl)-2-(oxazol-2-yl)-5,7-dioxo-4,5-dihydrothiazolo[5,4-d]pyrimidin-6(7H)-yl)acetic acid] | 5000 to 20000 |  |  |

Further lines, with some results ahead:

| IC50 (ACC2 [1]) [nM] | SMILES | IC50 (ACC1) [nM] | IC50 (ACC2 [2]) [nM] |
| --- | --- | --- | --- |
| ≤ 1000 | COc1ccccc1CCc1cn(CC(=O)O)c(=O)c2c(C)c(-c3ncco3)sc12 [Compound I-33, 2-(7-(2-methoxyphenethyl)-3-methyl-2-(oxazol-2-yl)-4-oxothieno[3,2-c]pyridin-5(4H)-yl)acetic acid] |  |  |
| ≤ 1000 | COc1ccccc1CCc1cn(CC(N)=O)c(=O)c2c(C)c(-c3ncco3)sc12 [Compound I-34, 2-(7-(2-methoxyphenethyl)-3-methyl-2-(oxazol-2-yl)-4-oxothieno[3,2-c]pyridin-5(4H)-yl)acetamide] |  |  |
